# In US9771352B2, “Hydroxyalkyl-substituted phenyltriazole derivatives and uses thereof” (BAYER PHARMA AKTIENGESELLSCHAFT, priority 2014, dated 2017):
# Key:
# [1] = target: T1, human V2 receptor (Homo sapiens, UniProt P30518); experiment: Cellular in vitro assay for determining vasopressin receptor activity, V2 receptor cell line (CRE-luciferase); type: cell-based; conditions: CHO cell line transfected with human V2 receptor; [Arg8]-vasopressin at EC50; compounds of the invention (Table 1A); read-out: IC50 hV2
# T1 construct: expressed in transfected cells; host or cells: CHO K1 (ATCC) expressing firefly luciferase under a CRE-responsive promoter
# Protocol: (§1) The identification of agonists and antagonists of the V1a and V2 vasopressin receptors from humans, rats and dogs as well as the quantification of the activity of the compounds of the invention is carried out using recombinant cell lines. These cell lines originally derive from a hamster's ovary epithelial cell (Chinese Hamster Ovary, CHO K1, ATCC: American Type Culture Collection, Manassas, Va. 20108, USA). The test cell lines constitutively express the human, rat or dog V1a or V2 receptors. In case of the […] V1a receptors, cells are also stably transfected with a modified form of the calcium-sensitive photoproteins aequorin (human and rat V1a) or obelin (dog V1a), which, after reconstitution with the cofactor coelenterazine, emit light when there are increases in free calcium concentrations [Rizzuto R, Simpson A W, Brini M, Pozzan T, Nature 358, 325-327 (1992); Illarionov B A, Bondar V S, Illarionova V A, Vysotski E S, Gene 153 (2), 273-274 (1995)]. The resulting vasopressin receptor cells react to stimulation of the recombinantly expressed V1a receptors by intracellular release of calcium ions, which can be quantified by the resulting photoprotein luminescence. The Gs-coupled V2 receptors are stably transfected into cell lines expressing the gene for firefly luciferase under control of a CRE-responsible promoter. Activation of V2 receptors induces the activation of the CRE-responsive promoter via cAMP increase, thereby inducing the expression of firefly luciferase. The light emitted by photoproteins of V1a cell lines as well as the light emitted by firefly luciferase of V2 cell lines corresponds to the activation or inhibition of the respective vasopressin receptor. The bioluminescence of the cell lines is detected using a suitable luminometer [Milligan G, Marshall F, Rees S, Trends in Pharmacological Sciences 17, 235-237 (1996)].
# On the day before the assay, the cells are plated out in culture medium (DMEM/F12, 2% FCS, 2 mM glutamine, 10 mM HEPES) in 384-well microtiter plates and kept in a cell incubator (96% humidity, 5% v/v CO2, 37° C.). […] Upon addition of the cell lysis reagent Triton and the substrate luciferin, luminescence of firefly luciferase is measured in a luminometer.
# (§2) Table 1A below lists individual IC50 values for the compounds of the invention (including diastereomeric mixtures as well as separated, enantiopure diastereomers) that were obtained from cell lines transfected with the human V1a or V2 receptor: […]
# [2] = target: T2, human V1a receptor (Homo sapiens, UniProt P37288); experiment: Cellular in vitro assay for determining vasopressin receptor activity, V1a receptor cell line (photoprotein luminescence); type: cell-based; conditions: CHO cell line transfected with human V1a receptor; [Arg8]-vasopressin at EC50; compounds of the invention (Table 1A); read-out: IC50 hV1a
# T2 construct: expressed in transfected cells; host or cells: CHO K1 (ATCC), also stably transfected with modified aequorin
# Protocol: as §1
# On the day before the assay, the cells are plated out in culture medium (DMEM/F12, 2% FCS, 2 mM glutamine, 10 mM HEPES, 5 μg/ml coelenterazine) in 384-well microtiter plates and kept in a cell incubator (96% humidity, 5% v/v CO2, 37° C.). On the day of the assay, test compounds in various concentrations are placed for 10 minutes in the wells of the microtiter plate before the agonist [Arg^8]-vasopressin at EC50 concentration is added. The resulting light signal is measured immediately in the luminometer.
# as §2
# T2 sequence (P37288 whole entry): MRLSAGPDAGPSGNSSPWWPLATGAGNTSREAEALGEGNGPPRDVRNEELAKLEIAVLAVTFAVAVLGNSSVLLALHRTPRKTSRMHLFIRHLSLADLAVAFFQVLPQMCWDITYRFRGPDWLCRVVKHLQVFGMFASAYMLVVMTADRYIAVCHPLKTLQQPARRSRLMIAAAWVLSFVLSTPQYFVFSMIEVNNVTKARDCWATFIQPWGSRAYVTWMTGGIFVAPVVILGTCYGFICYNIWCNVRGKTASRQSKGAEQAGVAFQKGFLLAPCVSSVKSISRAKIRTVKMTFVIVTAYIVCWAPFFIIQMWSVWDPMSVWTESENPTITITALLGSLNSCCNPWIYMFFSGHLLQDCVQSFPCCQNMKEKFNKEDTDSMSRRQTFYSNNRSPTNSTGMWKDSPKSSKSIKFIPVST
# T1 sequence (P30518 whole entry): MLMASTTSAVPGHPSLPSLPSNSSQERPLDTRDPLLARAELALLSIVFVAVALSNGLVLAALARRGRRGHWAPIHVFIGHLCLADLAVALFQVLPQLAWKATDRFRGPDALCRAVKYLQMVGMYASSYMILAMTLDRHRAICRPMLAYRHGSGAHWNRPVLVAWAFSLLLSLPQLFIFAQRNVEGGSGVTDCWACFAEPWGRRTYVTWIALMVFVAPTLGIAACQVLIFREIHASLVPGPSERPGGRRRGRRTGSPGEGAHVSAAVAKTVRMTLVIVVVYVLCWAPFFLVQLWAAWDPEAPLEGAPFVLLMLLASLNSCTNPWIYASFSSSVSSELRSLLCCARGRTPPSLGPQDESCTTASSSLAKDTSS
IC50 [1] [nM],IC50 [2] [nM],Compound
1,0.9,"CCc1ccccc1-n1nc(Cn2nc(-c3ccc(Cl)cc3)n(C[C@H](O)C(F)(F)F)c2=O)nc1C(C)O (single isomer, unassigned) [Example 32]"
3.7,18.9,"CC(O)c1nc(Cn2nc(-c3ccc(Cl)cc3)n(C[C@H](O)C(F)(F)F)c2=O)nn1-c1cc(Cl)cc(Cl)c1 (single isomer, unassigned) [Example 47]"
0.4,3.9,"CC(O)c1nc(Cn2nc(-c3ccc(Cl)cc3)n(C[C@H](O)C(F)(F)F)c2=O)nn1-c1cccc(Cl)c1F (mixture of isomers) [Example 52, 2-({1-(3-Chloro-2-fluorophenyl)-5-[(1RS)-1-hydroxyethyl]-1H-1,2,4-triazol-3-yl}methyl)-5-(4-chlorophenyl)-4-[(2S)-3,3,3-trifluoro-2-hydroxypropyl]-2,4-dihydro-3H-1,2,4-triazol-3-one]"
24.7,2.2,"CC(O)c1nc(Cn2nc(-c3ccc(Cl)cc3)n(C[C@H](O)C(F)(F)F)c2=O)nn1-c1ccccc1C(F)(F)F (single isomer, unassigned) [Example 74]"
2.8,0.8,"CC(O)c1nc(Cn2nc(-c3ccc(Cl)cc3)n(C[C@H](O)C(F)(F)F)c2=O)nn1-c1ccc(F)cc1Cl (single isomer, unassigned) [Example 36]"
7,1.1,"CC(O)c1nc(Cn2nc(-c3ccc(Cl)cc3)n(C[C@H](O)C(F)(F)F)c2=O)nn1-c1ccccc1C(F)(F)F (single isomer, unassigned) [Example 73]"
1.6,0.5,"CC(O)c1nc(Cn2nc(-c3ccc(Cl)cc3)n(C[C@H](O)C(F)(F)F)c2=O)nn1-c1ccc(F)cc1Cl (single isomer, unassigned) [Example 35]"
1.4,1.4,"COc1ccccc1-n1nc(Cn2nc(-c3ccc(Cl)cc3)n(C[C@H](O)C(F)(F)F)c2=O)nc1C(C)O (mixture of isomers) [Example 10, 5-(4-Chlorophenyl)-2-({5-[(1RS)-1-hydroxyethyl]-1-(2-methoxyphenyl)-1H-1,2,4-triazol-3-yl}-methyl)-4-[(2S)-3,3,3-trifluoro-2-hydroxypropyl]-2,4-dihydro-3H-1,2,4-triazol-3-one]"
2.2,57.8,"CC(O)c1nc(Cn2nc(-c3ccc(Cl)cc3)n(C[C@H](O)C(F)(F)F)c2=O)nn1-c1cccc(C(F)F)c1 (single isomer, unassigned) [Example 21]"
1.2,0.4,"CC(O)c1nc(Cn2nc(-c3ccc(Cl)cc3)n(C[C@H](O)C(F)(F)F)c2=O)nn1-c1ccc(F)cc1Cl (mixture of isomers) [Example 34, 2-({1-(2-Chloro-4-fluorophenyl)-5-[(1RS)-1-hydroxyethyl]-1H-1,2,4-triazol-3-yl}methyl)-5-(4-chlorophenyl)-4-[(2S)-3,3,3-trifluoro-2-hydroxypropyl]-2,4-dihydro-3H-1,2,4-triazol-3-one]"
12.7,5.1,"CC(O)c1nc(Cn2nc(-c3ccc(Cl)cc3)n(C[C@H](O)C(F)(F)F)c2=O)nn1-c1ccccc1F (single isomer, unassigned) [Example 42]"
2.1,6.3,"CC(O)c1nc(Cn2nc(-c3ccc(Cl)cc3)n(C[C@H](O)C(F)(F)F)c2=O)nn1-c1cc(Cl)cc(Cl)c1 (mixture of isomers) [Example 46, 5-(4-Chlorophenyl)-2-({1-(3,5-dichlorophenyl)-5-[(1RS)-1-hydroxyethyl]-1H-1,2,4-triazol-3-yl}-methyl)-4-[(2S)-3,3,3-trifluoro-2-hydroxypropyl]-2,4-dihydro-3H-1,2,4-triazol-3-one]"
2.6,7.6,"O=c1n(Cc2nc(CO)n(-c3cc(F)cc(F)c3)n2)nc(-c2ccc(Cl)cc2)n1C[C@H](O)C(F)(F)F [Example 7, 5-(4-Chlorophenyl)-2-{[1-(3,5-difluorophenyl)-5-(hydroxymethyl)-1H-1,2,4-triazol-3-yl]methyl}-4-[(2S)-3,3,3-trifluoro-2-hydroxypropyl]-2,4-dihydro-3H-1,2,4-triazol-3-one]"
3.3,2.5,"CC(O)c1nc(Cn2nc(-c3ccc(Cl)cc3)n(C[C@H](O)C(F)(F)F)c2=O)nn1-c1cccc(F)c1F (single isomer, unassigned) [Example 65]"
8.6,14.1,"CC(O)c1nc(Cn2nc(-c3ccc(Cl)cc3)n(C[C@H](O)C(F)(F)F)c2=O)nn1-c1ccccc1 (single isomer, unassigned) [Example 18]"
0.4,71.6,"Cc1cccc(-n2nc(Cn3nc(-c4ccc(Cl)cc4)n(C[C@H](O)C(F)(F)F)c3=O)nc2C(C)O)c1 (single isomer, unassigned) [Example 30]"
12.6,1.8,"CC(O)c1nc(Cn2nc(-c3ccc(Cl)cc3)n(C[C@H](O)C(F)(F)F)c2=O)nn1-c1cc(Cl)ccc1Cl (mixture of isomers) [Example 49, 5-(4-Chlorophenyl)-2-({1-(2,5-dichlorophenyl)-5-[(1RS)-1-hydroxyethyl]-1H-1,2,4-triazol-3-yl}-methyl)-4-[(2S)-3,3,3-trifluoro-2-hydroxypropyl]-2,4-dihydro-3H-1,2,4-triazol-3-one]"
1.4,6.2,"CC(O)c1nc(Cn2nc(-c3ccc(Cl)cc3)n(C[C@H](O)C(F)(F)F)c2=O)nn1-c1cc(F)cc(Cl)c1 (mixture of isomers) [Example 13, 2-({1-(3-Chloro-5-fluorophenyl)-5-[(1RS)-1-hydroxyethyl]-1H-1,2,4-triazol-3-yl}methyl)-5-(4-chlorophenyl)-4-[(2S)-3,3,3-trifluoro-2-hydroxypropyl]-2,4-dihydro-3H-1,2,4-triazol-3-one]"
2.1,0.6,"Cc1ccccc1-n1nc(Cn2nc(-c3ccc(Cl)cc3)n(C[C@H](O)C(F)(F)F)c2=O)nc1C(C)O (single isomer, unassigned) [Example 71]"
3.1,10.4,"CC(O)c1nc(Cn2nc(-c3ccc(Cl)cc3)n(C[C@H](O)C(F)(F)F)c2=O)nn1-c1cccc(Cl)c1 (mixture of isomers) [Example 78, 5-(4-Chlorophenyl)-2-({1-(3-chlorophenyl)-5-[(1RS)-1-hydroxyethyl]-1H-1,2,4-triazol-3-yl}-methyl)-4-[(2S)-3,3,3-trifluoro-2-hydroxypropyl]-2,4-dihydro-3H-1,2,4-triazol-3-one]"
1.8,7.9,"CC(O)c1nc(Cn2nc(-c3ccc(Cl)cc3)n(C[C@H](O)C(F)(F)F)c2=O)nn1-c1cccc(Cl)c1F (single isomer, unassigned) [Example 53]"
5.2,,"CC(O)c1nc(Cn2nc(-c3ccc(Cl)cc3)n(C[C@H](O)C(F)(F)F)c2=O)nn1-c1cc(F)ccc1Cl (single isomer, unassigned) [Example 60]"
2.4,,"CC(O)c1nc(Cn2nc(-c3ccc(Cl)cc3)n(C[C@H](O)C(F)(F)F)c2=O)nn1-c1cc(F)ccc1Cl (single isomer, unassigned) [Example 59]"
